The source of these data is publication PMC3790782, “Optimization and Pharmacological Validation of a Leukocyte Migration Assay in Zebrafish Larvae for the Rapid In Vivo Bioactivity Analysis of Anti-Inflammatory Secondary Metabolites” (PLoS ONE, 2013).

Converted amounts (≈) assume the structure as drawn. Marks after values point to notes of the source that are not given here.

For one series, the system named is TNF-α, RAW 264.7. As to conditions: cited from earlier work.
A further series relates to zebrafish larvae. As to conditions: 4 dpf zebrafish larvae, 8 h post-incubation; not more than 2 of 10 larvae with signs of toxicity. How it is done:
For the toxicological analysis, ten 4 dpf zebrafish larvae were used per well in 24-well culture plates. Incubation of each set of larvae at 28°C (±0.5) was done with SAIDs, NSAIDs and non-AIDs at concentrations ranging from 0.1 µM to 500 µM, with NPs at concentrations ranging from 1 µM to 500 µM, and with PEs at concentrations ranging from 1 ug/ml to 1 mg/ml. Controls containing only vehicle (1% DMSO) and untreated larvae were processed in parallel. Examination of each set of larvae was done under light microscopy (Carl Zeiss Stemi 2000C) each hour during a period of 8 h, and a final evaluation at 24 h post-incubation. At 8 h post-incubation, signs of toxicity, e.g. pericardial oedema, cardiovascular defects (arrhythmia or decreased circulation), balance defects (loss of normal posture), locomotor defects (decreased touch response), and ultimately death were scored for every drug, NP, and PE to further establish their maximum tolerated concentration (MTC). […] In this context, only non-toxic concentrations (below the MTC) were considered for further leukocyte migration analysis. All the toxicological assays were performed in duplicate using a different batch of zebrafish larvae for each set of experiments.
Toxicological assessment of all the samples analyzed in our study was done prior to the evaluation of their anti-inflammatory properties. The maximum tolerated concentrations (MTCs) were determined at 8 h post-treatment according to toxicological parameters including pericardial oedema, cardiovascular defects (arrhythmia or decreased circulation), balance defects (loss of normal posture), locomotor defects (decreased touch response), and death. […] Vehicle-treated (1% DMSO) and untreated larvae were processed in parallel to minimize experimental variability in this toxicological evaluation.

The subject of series [1] is leukocyte migration in 4 dpf zebrafish larvae. The experiment in a line: LPS-enhanced leukocyte migration assay (tail transection, MPO staining, RLM). The series is classed as in vivo, zebrafish (Danio rerio). Also noted: Anti-inflammatory activity at MTC: concentration or dose not given beside the values. As to conditions: for response vs control in vivo at 1 µM / response vs control in vivo at 10 µM / response vs control in vivo at 30 µM / response vs control in vivo at 100 µM / response vs control in vivo at 300 µM / response vs control in vivo at 500 µM: Danio rerio, Leukocyte, 8 h; for response vs control in vivo at 1 µM / response vs control in vivo at 10 µM / response vs control in vivo at 30 µM / response vs control in vivo at 100 µM / response vs control in vivo at 300 µM / response vs control in vivo at 500 µM / Leukocyte migration (RLM): tail cut + 10 µg/ml LPS, relative to 1% DMSO control; for Anti-inflammatory activity at MTC: (1−RLM)x100; for RLM (zebrafish-based assay): at the MTC given in Table 2. Here is the method:
The lipopolysaccharide- (LPS−)enhanced leukocyte migration assay was carried out by triplicate for each sample in 4 dpf zebrafish larvae. The total incubation period of the assay was eight hours. Initially, a pre-incubation step (i.e. prior to tail transection) of one hour at 28°C (±0.5°C) was carried out in 24-well culture plates. Ten larvae per well were incubated in 1 ml of testing mix, consisting of a specific concentration of each sample and the amount of 0.3 X Danieau’s medium necessary to complete 1 ml. Immediately after pre-incubation, complete tail transection in each larva was performed. Zebrafish larvae were first anesthetized by immersion in 0.3 X Danieau’s medium containing 70 µg/ml tricaine (ethyl 3-aminobenzoate, Sigma-Aldrich) and then tail transection near the tip was performed with a sterile scalpel under light microscopy (Carl Zeiss Stemi 2000C). Larvae were then placed in fresh 0.3 X Danieau’s medium without anesthetic for a few minutes until the final incubation period. For the last step, a new testing mix was prepared including 10 µg/ml lipopolysaccharides from Salmonella typhosa ATCC 10749 (LPS, Sigma-Aldrich Chemical) to enhance leukocyte migration to the injured zone. The final incubation step (i.e. subsequent to tail transection) of the injured larvae in contact with the pro-inflammatory agent and with the specific concentration of each SAID, NSAID, non-AID, NP, and PE at 28°C (±0.5°C) was done for 7 h. Within this period, sporadic evaluations of the larvae were done to examine their viability during the time of the assay. Larvae that completed the incubation time were fixed overnight in 4% formaldehyde (Sigma-Aldrich) at 4°C. Controls containing only the vehicle (1% DMSO) were processed in parallel.
Fixed larvae were gently washed twice with 1 X PBST (PBS-1X phosphate buffered saline, Gibco +0.1% Tween 20) for 5–10 min and then incubated at room temperature in 1 ml of freshly prepared Leucognost® Pox (Merck) staining solution, made according the directions of the provider. Observation of stained black-brown cells (leukocytes) in the larvae was possible within 15 min of incubation. Evaluation of the migrating leukocytes, particularly surrounding the injured region, in each larva was done under light microscopy (Carl Zeiss Stemi 2000C) and scoring was done using a migration scale established to semi-quantify the amount of migrating leukocytes on one side of each larva.
The average of the value achieved for each of the ten larvae tested in triplicate for one sample is expressed as relative leukocyte migration (RLM) according to the formula: RLM = leukocyte migration of the larva/average leukocyte migration of the negative control.
To determine the extent of leukocyte migration generated after exposing 4 dpf zebrafish larvae to mechanical and biological stimuli – namely tail transection and LPS exposure – we used a commercially available whole-mount cytochemical staining method (Leucognost® Pox, Merck) to detect MPO activity in situ. To minimize the number of handling steps post-staining, this method was chosen over the alternative myeloperoxidase stain Sudan Black B [26], [27], which also stains phospholipids, neural fats and sterols. In our experiments, we visualized migrating leukocytes in 4 dpf larvae at 8 h post-injury. Microscopic evaluations of MPO-stained larvae allowed us to score the degree of leukocyte migration at the trauma site according to a comparative scale that we established particularly for this purpose (Figure 2). Myeloperoxidase-positive cells, appearing as black-brown dots, were counted in a segment at the edge of the tail on one side of every larva (Figure 2). The number of leukocytes was then graded according to the comparative scale and subsequently converted into a relative value expressed as the relative leukocyte migration (RLM) activity for the total number or larvae for one sample.

For series [2], the system named is COX, rat peritoneal leukocytes. Also noted: method as in PMID 19378317, PMID 16220571, PMID 21443976. As to conditions: cited from earlier work.
Another series deals with NO, RAW 264.7. The arrangement: method as in PMID 15621702, PMID 19678956, PMID 19885845. As to conditions: cited from earlier work.
Series [3] concerns NO, PGE2, COX-2, RAW 264.7. Also noted: method as in PMID 21771629, PMID 21870032. As to conditions: cited from earlier work.
For the next series, the system named is PGE2, rat macrophages. As to conditions: cited from earlier work.
The subject of another series is TNF-α, iNOS, macrophages. Also noted: method as in PMID 19378317, PMID 15668926. As to conditions: cited from earlier work.
The test system of a further series is TNF-α, RBL-2H3. Also noted: method as in PMID 19378317, PMID 17982104, PMID 21443976. As to conditions: cited from earlier work.
A further series deals with IL-1β, human monocytes. The arrangement: method as in PMID 19378317, PMID 17982104, PMID 21443976. As to conditions: cited from earlier work.
Another series has as its system IL-4, RBL-2H3. Also noted: method as in PMID 19378317, PMID 17982104, PMID 21443976. As to conditions: cited from earlier work.

By IC50 is commonly meant the concentration that gives 50% inhibition. As for `O=c1cc(-c2ccc(O)c(O)c2)oc2cc(O)cc(O)c12` [Luteolin, luteolin], the IC50 in the series on TNF-α, RAW 264.7 was less than 1 µM. Also, the “Maximum tolerated concentration (MTC)” value in the series on zebrafish larvae is on record as 500 µM. Moreover, the response vs control in vivo at 1 µM in series [1] (1 µM) came to 63%. Moreover, in [1], the response vs control in vivo at 10 µM stood at 61%, the response vs control in vivo at 100 µM stood at 48%, the response vs control in vivo at 300 µM worked out at 44% and the “Anti-inflammatory activity at MTC” value is 59%. Besides, the “RLM (zebrafish-based assay)” value in series [1] is listed as 0.41. Also, in series [1] (30 µM), the response vs control in vivo at 30 µM was determined as 55%. Moreover, in series [1] (500 µM), the response vs control in vivo at 500 µM came out at 41%. In addition, the IC50 in series [2] was 100 µg/mL (≈ 349 µM).

On to `O=C(O)/C=C/c1ccc(O)c(O)c1` [Caffeic acid, caffeic acid], for which, in the series with zebrafish larvae, the “Maximum tolerated concentration (MTC)” value worked out at 500 µM. Moreover, in series [1] (500 µM), the “Leukocyte migration (RLM)” value is on record as 0.14 ^** and the response vs control in vivo at 500 µM is 14%. For the same compound, the response vs control in vivo at 1 µM in series [1] (1 µM) was determined as 80%. Moreover, in series [1], the response vs control in vivo at 10 µM came to 71%, the response vs control in vivo at 100 µM stood at 59%, the response vs control in vivo at 300 µM was 34% and the “Anti-inflammatory activity at MTC” value was 86%. Further, the “RLM (zebrafish-based assay)” value in [1] was 0.14. In series [1] (30 µM), the response vs control in vivo at 30 µM came to 59%. The IC50 in the series on NO, RAW 264.7 was 4.8 µM.

On to `CC(C)=CCC[C@](C)(O)[C@@H]1CC=C(C)CC1` [(−)-α-bisabolol], for which, in the series with zebrafish larvae, the “Maximum tolerated concentration (MTC)” value amounted to 30 µM. For the same compound, the entries for the “Leukocyte migration (RLM)” value in series [1] (1 µM) and in [1] (30 µM) were 0.53 ^* and 0.48, respectively. Further, the “Anti-inflammatory activity at MTC” value in series [1] amounted to 52%. Also, the “RLM (zebrafish-based assay)” value in series [1] was found to be 0.48. Also, the IC50 in series [3] was 100 µM.

As for `O=c1c(O)c(-c2ccc(O)c(O)c2)oc2cc(O)cc(O)c12` [Quercetin, quercetin], in the series with TNF-α, RAW 264.7, the IC50 was 1 µM. In the series with zebrafish larvae, the “Maximum tolerated concentration (MTC)” value is 500 µM. Moreover, in [1] (500 µM), the “Leukocyte migration (RLM)” value was 0.31 ^* and the response vs control in vivo at 500 µM is 31%. Moreover, the response vs control in vivo at 1 µM in [1] (1 µM) was 65%. In addition, in series [1], the response vs control in vivo at 10 µM turned out to be 55%, the response vs control in vivo at 100 µM was 42%, the response vs control in vivo at 300 µM is 40% and the “Anti-inflammatory activity at MTC” value is listed as 69%. In series [1], the “RLM (zebrafish-based assay)” value is 0.31. Besides, the response vs control in vivo at 30 µM in [1] (30 µM) came to 35%. In series [1] (listed as quercetin), the “Anti-inflammatory activity at MTC” value was 69%. Also, the IC50 in the series with PGE2, rat macrophages was 13.9 µM. The IC50 with TNF-α, iNOS, macrophages was 50 µM.

`O=c1cc(-c2ccc(O)cc2)oc2cc(O)cc(O)c12` [Apigenin, apigenin]: in the series with zebrafish larvae, the “Maximum tolerated concentration (MTC)” value turned out to be 500 µM. Also, in series [1] (500 µM), the “Leukocyte migration (RLM)” value is given as 0.35 ^*** and the response vs control in vivo at 500 µM was found to be 35%. Besides, the response vs control in vivo at 1 µM in series [1] (1 µM) worked out at 74%. Besides, in [1], the response vs control in vivo at 10 µM is 53%, the response vs control in vivo at 100 µM worked out at 37%, the response vs control in vivo at 300 µM was 37% and the “Anti-inflammatory activity at MTC” value was 65%. Besides, the “RLM (zebrafish-based assay)” value in series [1] is given as 0.35. Besides, in [1] (30 µM), the response vs control in vivo at 30 µM stood at 54%. For the same compound, in [1] (listed as apigenin), the “Anti-inflammatory activity at MTC” value is 65%. In addition, the half-inhibitory concentration (IC50) in the series with TNF-α, RBL-2H3 was 5.3 µM. The IC50 in the series with IL-1β, human monocytes is 10 µM. Further, the IC50 in the series with IL-4, RBL-2H3 was 3.6 µM.
